From patent US20240293413A1, “COMPOUND AND METHOD FOR TREATING CHEMOTHERAPY-RELATED GASTROINTESTINAL SIDE EFFECTS” (ONQUALITY PHARMACEUTICALS CHINA LTD., priority 2021, published 2024)

Legend:
Assay type in all cases: in vivo
[1] = test system: Chemotherapeutic agent-caused diarrhea models of Balb/c mice; test: Examples 1-229 (Table 3): oral CDK inhibitor, relief of diarrhea caused by a chemotherapeutic agent;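 further: percent of treated mice whose diarrhea grade fell below chemotherapy-group average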
[2] = test system: diarrhea caused by a chemotherapeutic agent in Balb/c mice; test: Examples 230-271 (Table 4): oral CDK inhibitor, relief of diarrhea caused by a chemotherapeutic agent; settings: Example 262; Cytarabine (Ara-C) oral administration 1000 mg/kg single; CDK inhibitor oral single (dosage not given), 24 h before; cycle 8 days
Description: Balb/c mice were fed for 1 week, and then divided into groups. The experiment was divided into a control group, a chemotherapeutic agent group, and a CDK inhibitor group, each of which comprised 10 mice, to perform the administration experiment, for which the administration dosage, mode, time and frequency were shown in Table 4. The control group: being intragastrically administered with the same solvent as that used in the CDK inhibitor group (the time was shown in Table 4), and then being injected/intragastrically administered with the same solvent as that used in the chemotherapeutic agent group (the administration mode was shown in Table 4): the chemotherapeutic agent group: being intragastrically administered with the same solvent as that used in the CDK inhibitor group (the time was shown in Table 4), and then being injected/intragastrically administered with the chemotherapeutic agent (the type, administration mode and dosage were shown in Table 4): the CDK inhibitor group: being intragastrically administered with the CDK inhibitor (the time was shown in Table 4), and then being administered with the chemotherapeutic agent (the mode and dosage were shown in Table 4).
(§1) The diarrhea grading of mice was observed and recorded every day.

[3] = test system: Chemotherapeutic agent-caused constipation models of Balb/c mice; test: Examples 272-342 (Table 5): oral CDK inhibitor, relief of constipation caused by a chemotherapeutic agent; settings: Example 335; Cytarabine (Ara-C) oral administration 1000 mg/kg single; CDK inhibitor oral 60 mg/kg single, 24 h before; cycle 8 days;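 further: percent of treated mice relieved versus chemotherapy group by feces reduction rate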
Description: Construction of mouse animal models: Chemotherapeutic agent-caused constipation models of Balb/c mice were constructed according to the administration mode and frequency of the chemotherapeutic agent as shown in Table 5.
Balb/c mice were fed for 1 week, and then divided into groups. The experiment was divided into a control group, a chemotherapeutic agent group, and a CDK inhibitor group, each of which comprised 10 mice, to perform the administration experiment, for which the administration dosage, mode, time and frequency were shown in Table 5. The control group: being intragastrically administered with the same solvent as that used in the CDK inhibitor group (the time was shown in Table 5), and then being injected/intragastrically administered with the same solvent as that used in the chemotherapeutic agent group (the administration mode was shown in Table 5): the chemotherapeutic agent group: being intragastrically administered with the same solvent as that used in the CDK inhibitor group (the time was shown in […]), and then being injected/intragastrically administered with the chemotherapeutic agent (the type, administration mode and dosage were shown in Table 5): the CDK inhibitor group: being intragastrically administered with the CDK inhibitor (the time was shown in Table 5), and then being administered with the chemotherapeutic agent (the mode and dosage were shown in Table 5).
Feces reduction rate (%)=(the control group−the chemotherapeutic agent group or the CDK inhibitor group)/the control group*100%
The feces amount of mice within 3 hours was observed and recorded every day.

[4] = test system: diarrhea caused by a chemotherapeutic agent in Balb/c mice; test: Examples 343-381 (Table 6): oral versus intravenous CDK inhibitor, relief of diarrhea caused by a chemotherapeutic agent; settings: Example 370, Topotecan (TP) oral administration 20 mg/kg single, 24 h before, cycle 10 days;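 further: percent of treated mice whose diarrhea grade fell below chemotherapy-group average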
Description: Balb/c mice were fed for 1 week, and then divided into groups. The experiment was divided into a control group, a chemotherapeutic agent group, and an oral administration group of a CDK inhibitor, and an intravenous injection group of a CDK inhibitor, each of which comprised 10 mice, to perform the administration experiment, for which the administration dosage, mode, time and frequency were shown in Table 6. The control group: being injected/intragastrically administered with the same solvent as that used in the CDK inhibitor group (the time was shown in Table 6), and then being injected/intragastrically administered with the same solvent as that used in the chemotherapeutic agent group (the administration mode was shown in Table 6): the chemotherapeutic agent group: being injected/intragastrically administered with the same solvent as that used in the CDK inhibitor group (the time was shown in Table 6), and then being injected/intragastrically administered with the chemotherapeutic agent (the type, administration mode and dosage were shown in Table 6): the oral administration group of the CDK inhibitor: being intragastrically administered with the CDK inhibitor (the time was shown in Table 6), and then being administered with the chemotherapeutic agent (the mode and dosage were shown in Table 6): the intravenous injection group of the CDK inhibitor: being injected with the CDK inhibitor through tail vein (the time was shown in Table 6), and then being administered with the chemotherapeutic agent (the mode and dosage were shown in Table 6).
as §1

## CN1CCC(c2c(O)cc(O)c3c(=O)cc(-c4ccccc4Cl)oc23)C1CO (stereo not shown) [Riviciclib]
[1]; Example 35, Fluorouracil (5-Fu) intraperitoneal injection 125 mg/kg single, CDK inhibitor oral 65 mg/kg single 8 h before, cycle 10 days
  Relative remission rate (%): 40%
[1]; Example 192, Gemcitabine (GEM) intravenous injection 120 mg/kg single, CDK inhibitor oral 180 mg/kg single, 6 h before, 8 days
  Relative remission rate (%): 70%
[1]; Example 215, Fluorouracil 100 mg/kg and irinotecan 200 mg/kg intravenous injection single, CDK inhibitor oral 65 mg/kg single, 2 h before, 10 days
  Relative remission rate (%): 50%
[2]
  Relative remission rate: 20%
[3]
  Relative remission rate: 20%
[4]; CDK inhibitor intravenous injection 60 mg/kg single
  Relative remission rate: 10%
[4]; CDK inhibitor oral 60 mg/kg single
  Relative remission rate: 30%
